Data set [1] can be described thus: Chemical stability (physical properties). It is filed as physicochemical.
The target in data set [2] is Na^+ /K^+ -ATPase (Bos taurus, UniProt Q08DA1). Put plainly: Na+/K+-ATPase (sodium pump) inhibition assay, 86Rb+ uptake in MDBK cells. It is filed as cell-based, bovine (Madin-Darby bovine kidney cells). The conditions noted are these: 0.2-200 ng/well. As for the experimental part:
The assay in MDBK cells has been described previously (see Benaksas et al., above). The assay is described briefly here. Madin-Darby bovine kidney (MDBK) cells (ATCC:CCL22) were maintained in Dulbecco's Modified Eagle's Medium (DMEM) with 5% Fetal Bovine Serum and 5% Bovine Calf Serum in a 5% CO2 /95% humidified air atmosphere at 37° C. and split (1:2) once per week.
One day before the assay, cells were plated in a 96-well plate at a density of 5×10^5 cells/well in DMEM with serum. On the day of the assay the medium was removed and the cells washed with phosphate buffered saline (PBS) before addition of 100 μL of assay media (122 mM NaCl, 1.8 mM CaCl2, 0.8 mM MgSO4, 24 mM NaHCO3, 1 mM sodium pyruvate, 25 mM glucose, 14 mM glycylglycine, 0.2% phenol red, 8 mM Na2 HPO4 1.15 mM KH2 PO4, pH 8.0) and 100 μl of sample. The plate was preincubated for 30 minutes at 37° C., then chilled on ice for 10 minutes. To each well was added 0.15 μCi ^86 RbCl (Amersham) in 10 μL of assay media. The plate was then incubated at 37° C. for 10 minutes. A portion (100 μL) of the supernatant was counted with 0.5 mL of scintillation cocktail in a liquid scintillation counter. As a control for Na^+ /K^+ -ATPase inhibition, a dose response curve for ouabain in the range of 10^-5 -10^-8 M was obtained. Intra-experiment coefficient of variation for ouabain was 3-15%. […]

The nature of data set [3]: Free radical scavenging.
Data set [4] has as its system conscious rats. As to the kind of experiment: In vivo bioassay for natriuresis, kaliuresis, diuresis and mean arterial pressure in conscious rats. More on the design: species or system female Sprague-Dawley rats. The conditions noted are these: for Natriuretic Response (R): Rn = SR/FR, >0.67 active.
Experimental: Female Sprague-Dawley (Harlan) rats (200-250 g) were cannulated in the femoral artery and vein for monitoring of mean arterial pressure (MAP) and infusion of saline and samples, respectively. The bladder was catheterized for collection of urine in ten-minute periods. Furosemide (0.4 mg/kg bwt; 1 mg/mL in 0.17% saline) was infused as a positive control at the beginning of the sixth ten-minute period. The sample was infused at the beginning of the seventeenth ten-minute period. Urine was collected for another 150 minutes. The volume of the urine was determined gravimetrically and the Na^+ and K^+ concentrations determined with a Beckman E2A electrolyte analyzer.
The natriuretic response of a sample was normalized to the dose of furosemide infused. The net sodium excretion for the infusion of furosemide or sample was calculated as follows. The median sodium excretion value (μmoles Na^+ /10 minute period) for the five periods before infusion of furosemide or sample was used to establish a baseline value for the calculation of ΔUNaV(=μmoles Na^+ period-baseline μmoles Na^+) for administration of either furosemide or sample respectively. The sum of ΔUNaV for the four periods following infusion of furosemide was the net sodium excreted for furosemide, defined as FR. The sum of ΔUNaV for the fifteen periods following infusion of the sample was the net sodium excreted for the sample defined as SR. The natriuretic ratio Rn (or normalized natriuretic response) of a sample was calculated by dividing SR by FR(Rn =SR/FR).
For data set [5] the following is noted: literature statement; cited from earlier work.

Molecules are shown by their SMILES. “And” between values parts separate entries of the source, which are not always exact repeats. Equal values may be shown once. “Also recorded” adds a separate entry of the source.

As for `Cc1c(O)cc2c(c1C)OC(C)(CCC(=O)O)CC2` (stereo not drawn) [LLU-α, 6-hydroxy-2,7,8-trimethylchroman-2-propanoic acid], the “stability in CDCl3” value in data set [1] (CDCl3) is reported as “Unstable”. The “stability in dilute base” value in data set [1] (dilute base) was “instability in dilute base; also recorded: Unstable”. Besides, in data set [2], the “Na^+ /K^+ -ATPase inhibition” value was “no inhibition”. Besides, the free radical scavenging entry in data set [3] was “cardio-selective free radical scavenger”. Also, the natriuretic activity entry in data set [4] (8 μg/kg, further purified on acetic acid/acetonitrile RP-HPLC (seventh step)) is “active”. In addition, the natriuretic dose-response curve entry in data set [4] (Table III) was “narrow and biphasic”. Also, the “natriuretic activity of isolates” value in data set [4] (crude isolates from second RP-HPLC step) is recorded as “natriuretically active”. Also, in data set [4] (in mammals), the “sodium excretion in urine relative to potassium excretion” value was “increasing sodium excretion in the urine in mammals without a corresponding increase in potassium excretion”. In addition, the “kaliuresis (potassium excretion) on infusion” value in data set [4] (infused into conscious rats) is “no detectable kaliuresis”. In addition, the natriuresis on infusion entry in data set [4] (infused into the rat (FIGS. 3A and B)) is on record as “sustained natriuresis”. The “effect on blood pressure” value in data set [4] (infused into the rat, data not shown) is recorded as “no effect on blood pressure”. Moreover, the “change in mean arterial pressure” value in data set [4] (on infusion, conscious rats) is given as “does not cause a significant change in mean arterial pressure; also recorded: Neither LLU-α nor -γ caused a significant change in mean arterial pressure”. The “natriuretic activity at lower or higher doses” value in data set [4] (partially purified (sixth purification step), doses below or above 4-8 μg/kg) was “no activity”. In addition, the “natriuretically active dose range” value in data set [4] (partially purified, silica gel HPLC (sixth purification step)) was in the range of 4 to 8 µg/kg. Moreover, the “Natriuretic Response (R)” value in data set [4] (silica gel HPLC fraction 17, dose 0.2 μg) was -0.14; in data set [4] (silica gel HPLC fraction 17, dose 1 μg) it was 0.27; in data set [4] (silica gel HPLC fraction 17, dose 2 μg), 1.14 and 0.75; in data set [4] (silica gel HPLC fraction 17, dose 10 μg), 0.26; in data set [4] (silica gel HPLC fraction 18, dose 56.4 μg) it was 0.23; in data set [4] (silica gel HPLC fraction 18, dose 224 μg) it was 0.02. Moreover, the “Natriuretic Response (R)” value in data set [4] (silica gel HPLC fraction 19, dose 0.2 μg) is 0.24; in data set [4] (silica gel HPLC fraction 19, dose 1 μg), 0.93; in data set [4] (silica gel HPLC fraction 19, dose 10 μg), 0.09.

`C[C@@H]1O[C@@H](O[C@H]2C[C@@H](O)[C@]3(CO)[C@H]4[C@H](O)C[C@]5(C)[C@@H](C6=CC(=O)OC6)CC[C@]5(O)[C@@H]4CC[C@]3(O)C2)[C@H](O)[C@H](O)[C@H]1O` [Ouabain]: the natriuretic activity result in data set [5] is on record as “not, however, natriuretic”.

On to `C[C@H]1O[C@@H](O[C@H]2[C@@H](O)C[C@H](O[C@H]3[C@@H](O)C[C@H](O[C@H]4CC[C@@]5(C)[C@H](CC[C@@H]6[C@@H]5C[C@@H](O)[C@]5(C)[C@@H](C7=CC(=O)OC7)CC[C@]65O)C4)O[C@@H]3C)O[C@@H]2C)C[C@H](O)[C@@H]1O` [digoxin], for which the natriuretic activity result in data set [5] was “not, however, natriuretic”.

Values taken from patent US6083982A, “Natriuretic compounds” (Loma Linda University Medical, priority 1998, dated 2000).
